Reference: US20180280429A1, “APPLICATION OF NITRATE IN PREPARATION OF DRUG PREVENTING OR TREATING BONE METABOLIC DISEASES” (Capital Medical University, priority 2015, published 2018)

Legend:
[1] = Measurement of nitrate and nitrite in serum (Griess); type: in vivo, SD rats; conditions: after drinking water containing nitrate for 3 months, *p<0.05
Description: (§1) 12-week-old female SD rats were selected for the osteoporosis model and bilateral ovaries of them were removed. The experiment objects were divided into 3 groups: the sham operation group (Sham), the ovariectomized group (OVX) and the nitrate group (Nitrate), and there were 10 rats in each group. In the nitrate group, drinking water with sodium nitrate was given on the second day after ovariectomy (ovarianectomy) at a concentration of 2.5 mmol/L, and the daily intake of nitrate in each rat was about 0.5 mmol/Kg bw, the water with nitrate was given for 12 weeks, while normal drinking water was given in the other groups.
(1) Preparation of the standard: the double dilution of the original standard was 200 μM-3.125 μM
(2) Determination of Nitrite Concentration:
1) Adding 50 μl reaction buffer to blank holes;
2) Adding 50 μl sample or standard to reaction buffer;
3) Adding 50 μl of reaction buffer to each hole in sequence;
4) Adding 50 μl of Griess Reagent I in each hole in sequence;
5) Adding 50 μl of Griess Reagent II to each hole and incubating at room temperature for 10 minutes;
6) Reading the OD value at 540 nm with a microplate reader and the value at 690 nm is used as calibration.
(3) Determination of Nitrate Concentration: […]
7) Reading the OD value at 540 nm with a microplate reader and the value at 690 nm is used as calibration.

[2] = tested on: BMMSCs of ovariectomized rats; experiment: BMMSC osteogenic differentiation, alizarin red staining (cells cultured from treated rats); type: cell-based, SD rats; conditions: BMMSC from OVX rats given drinking water with nitrate, after 21 days of osteogenesis induction, vs OVX group, *P<0.05
Description: as §1
(§2) After necropsy, the skin of the hind limbs was removed. After exposing the femur and tibia, the bone marrow was extracted with a 1 mL syringe to flush out from the stump. Cells were cultured in the α-MEM complete medium (containing 10% of bovine serum), and subcultured after the cells were clonally grown until 80% of the fusion.
Preparation of osteoinductive medium: adding 2 mmol/L glutamine, 100 U/ml penicillin and 100 μg/ml streptomycin, 10 mM β-glycerophosphate sodium, and 10 nM Dexamethasone and 50 mg/L vitamin C to 10% fetal bovine serum α-MEM medium. […]

[3] = tested on: BMMSCs of ovariectomized rats; experiment: BMMSC proliferation by the CCK8 method (cells cultured from treated rats); type: cell-based, SD rats; conditions: third generation cells from OVX rats given drinking water with nitrate, vs OVX group, *P<0.05
Description: as §1, §2
100 μl of cell suspension was inoculated in the 96-well plate, and the plate was pre-cultured in the incubator for 24 hours (under the condition of 37° C., 5% CO2). Then the plate was incubated in an incubator for 72 hours. 100 μl of culture medium was added to each well and 10 μl of CCK-8 solution was added to each hole. After 2 hours, the absorbance at 450 nm was measured with an enzyme labeled instrument.

ovariectomized rats [4] = experiment: Bone density detection by Micro-CT of the upper tibia in the ovariectomized rat osteoporosis model; type: in vivo, SD rats; conditions: OVX rats, 12 weeks, vs OVX group
ovariectomized rats [5] = experiment: Tibia weight, body weight and adverse reactions in ovariectomized rats; type: in vivo, SD rats; conditions: OVX rats
Description: as §1

[6] = tested on: regulatory T lymphocytes (Treg); experiment: Detection of the peripheral blood regulatory T cell ratio by flow cytometry; type: in vivo, SD rats; conditions: OVX rats, drinking water with nitrate, 12 weeks, vs OVX group, *P<0.05
Description: as §1
(1) The Detection of the Peripheral Blood Regulatory T Cell Ratio in the Rats
1) Blood was collected from the abdominal aorta of the rats in each group and the serum was collected.
2) 100 μl 0.1% BSA is added for resuspending, and then Anti-CD4, Anti-CD25 are added for incubating on ice for 30 minutes while avoiding light.
3) The obtained mixture is centrifuged at 1500 rpm for 10 minutes, and then the supernatant is removed and 0.1% BSA is added for resuspending.
4) The membrane-permeation solution is added on 4° C., 10 minutes.
5) The obtained mixture is centrifuged at 1500 rpm for 10 minutes, and then the supernatant is removed and 0.1% BSA is added for resuspending.
6) Anti-Foxp3 is added for incubating on ice for 30 minutes while avoiding light. […]

TGF-β1, IFN-γ and IL-17 = experiment: Detection of TGF-β1, IFN-γ and IL-17 in serum; type: in vivo, SD rats; conditions: OVX rats, drinking water with nitrate, 12 weeks, vs OVX group, *P<0.05
Description: as §1
(2) Detection of TGF-β1, IFN-γ and IL-17
1) The serum is diluted for 10 times, and 0.1 ml of which is placed into the 96-well plate of the kit. At the same time, the standard in the kit is taken and diluted in proportion, and then placed into the 96-well plate and incubated at 37° C./at room temperature for 30 minutes/1 hour according to the instructions. The obtained object is washed with a buffer for 3 times and each time lasts for 3 minutes.
2) 100 μl enzyme-labeled antibody is added for incubating for 15 minutes/30 minutes at 37° C./at room temperature. The obtained object is washed for 3 times and each time lasts for 3 minutes.
3) 100 μl substrate solution is added and then incubated for 15 minutes at room temperature/37° C.
4) 100 μl stop solution is added to stop the reaction for 5 minutes.
5) The readings of the enzyme labeled instrument at 450 nm is obtained.

[7] = sodium nitrate 2.5 mmol/L in drinking water, *P<0.05

O=[N+]([O-])[O-].[Na+] [nitrate, sodium nitrate]
content of nitrate in serum (FIG. 3A) [1]: significantly increased
content of nitrite in serum (FIG. 3B) [1]: significantly increased
osteogenic differentiation of BMMSCs, alizarin red staining and quantification (FIG. 5B) [2]: significantly enhanced osteogenic differentiation
proliferation of BMMSCs, OD450 value by CCK8 (FIG. 5A) [3]: significantly reduced the proliferation
loss of tibial bone mass (MicroCT of the upper tibia, FIG. 1B) (ovariectomized rats [4]; sodium nitrate 2.5 mmol/L in drinking water (about 0.5 mmol/Kg bw daily)): significantly relieved
bone density (BMD), MicroCT quantitative analysis (FIG. 1C) (ovariectomized rats [4]; [7]): partially recover
bone volume fraction (BV/TV), MicroCT quantitative analysis (FIG. 1D) (ovariectomized rats [4]; [7]): partially recover
trabecular number (Tb.N), MicroCT quantitative analysis (FIG. 1F) (ovariectomized rats [4]; [7]): partially recover
trabecular thickness (Tb.Th), MicroCT quantitative analysis (FIG. 1E) (ovariectomized rats [4]; [7]): partially recover
adverse reactions (ovariectomized rats [5]; nitrate in drinking water, at the time of preservation of bone mass): no obvious adverse reactions
body weight (weight gain) (FIG. 2B) (ovariectomized rats [5]; sodium nitrate 2.5 mmol/L in drinking water, 12 weeks): no significant effect on the weight gain
tibia weight (FIG. 2A) (ovariectomized rats [5]; sodium nitrate 2.5 mmol/L in drinking water, 12 weeks, vs OVX group): relieve the decrease of tibia weight
proportion of regulatory T lymphocytes in peripheral blood CD4 positive cells (FIG. 4A) [6]: reduce the decline
level of IFN-γ in serum (FIG. 4C) (TGF-β1, IFN-γ and IL-17): alleviate the up-regulation
level of IL-17 in serum (FIG. 4D) (TGF-β1, IFN-γ and IL-17): alleviate the up-regulation
level of TGF-β1 in serum (FIG. 4B) (TGF-β1, IFN-γ and IL-17): alleviate the down-regulation
